Results taken from ChEMBL document CHEMBL1128168, “An efficient synthesis of the benzhydrylpiperazine delta opioid agonist (+)-BW373U86” (Bioorg Med Chem Lett, 1995).

Biological target: Delta-type opioid receptor (Homo sapiens) (UniProt P41143)
Test: Compound was tested for delta-opioid receptor agonistic activity;A - found to be highly selective
Type: functional
Settings: filed as agonist

Delta-type opioid receptor (Homo sapiens), sequence (P41143 whole entry): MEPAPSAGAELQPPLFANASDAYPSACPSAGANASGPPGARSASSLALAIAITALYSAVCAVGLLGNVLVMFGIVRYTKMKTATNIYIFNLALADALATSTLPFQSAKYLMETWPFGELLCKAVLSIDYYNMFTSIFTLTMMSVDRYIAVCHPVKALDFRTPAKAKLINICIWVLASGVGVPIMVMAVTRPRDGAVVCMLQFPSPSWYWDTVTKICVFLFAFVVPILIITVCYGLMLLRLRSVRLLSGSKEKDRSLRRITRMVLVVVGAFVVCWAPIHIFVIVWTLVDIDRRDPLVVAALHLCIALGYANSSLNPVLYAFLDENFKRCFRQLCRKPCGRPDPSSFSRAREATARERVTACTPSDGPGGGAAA

With `C=CCN1C[C@H](C)N([C@H](c2ccc(C(=O)N(CC)CC)cc2)c2cccc(O)c2)C[C@H]1C` the Activity was “Agonist”.
